Measured values as given in patent publication US20080146555A1, “Uses of Kinase Inhibitors and Compositions Thereof” (GPC Biotech, Inc, priority 2004, published 2008).

Columns and labels:
CEM = assay: SRB cytotoxicity, CEM parental cells; type: cell-based; details: Homo sapiens, CCRF-CEM, 72 h
Protocol: (§1) In these experiments, the P-glycoprotein expressing NCI-Adr resistant subline (Vickers et al., 1989. Mol Endocrinology 3 (1):157-164) was used. […] Briefly, cells were plated in 96 well dishes 24 hours prior to compound addition. Where noted, they were exposed to verapamil for 4 hours prior to compound addition and then throughout the treatment period (72 hours). The assay was terminated with the addition of cold TCA to a final concentration of 10% and the plates were incubated for one hour at 4° C. The plates were then washed 5 times with water and 100 μl of a Sulforhodamine B solution (4%) was added to each well. The plate was then incubated for 10 minutes at room temperature before removal of unbound dye by washing with 1% acetic acid.
(§2) The Camptothecin resistant CEM/C2 cells were derived from the T lymphoblastoid leukemia cell line CCRF/CEM by selection in the presence of Camptothecin in vitro (Kapoor et al., 1995. Oncology Research 7; 83-95, ATCC).
(§3) The effects of A37 and B16 were evaluated in the CCRF/CEM and CEM/C2 cells using the same SRB assay as described above, with 72-hour drug exposure.

CEM/C2 = assay: SRB cytotoxicity, camptothecin resistant cells; type: cell-based, human
Protocol: as §1, §2, §3

A129 = assay: SRB cytotoxicity, A129 parental cells; type: cell-based, human; details: 72 h
Protocol: as §1
The parental non-mutated cell line A129 was used as a control.

A129 cp80 = assay: SRB cytotoxicity, cisplatin resistant cells; type: cell-based, human
[1] = test system: NCI panel of 60 cell lines; assay: cells; details: Homo sapiens, 60 cell, 48 h, read-out: NCI panel MG-MID (Mean-Graph Mid-point, average IC50 over panel), 48 h, SRB; IC50 <10 nM counted as 10 nM
Source text: (§4) The evaluation of compounds at the National Cancer Institute in their panel of 60 cell lines provides a wealth of information regarding efficacy in a wide range of tumor types and genetic backgrounds. Included within this panel are cell lines derived from leukemia, melanoma and cancers of the lung, colon, brain, ovary, breast, prostate and kidney. Use of this panel provides a measure of the efficacy of compounds in cells with alterations in many genes that are associated with neoplastic transformation including p53 and Her2/Neu as well as those involved in metabolism and those which confer multi-drug resistance. The data generated in these cell lines with the protocol described below can be used to evaluate the activity of compounds.
(§5) Cells were grown in RPMI-1640 10% FCS and plated in 96 well micro-titer plates at densities ranging from 5,000 to 40,000 cells/well. The plates were incubated for 24 hours at 37° C., 5% CO2 for 24 hours. Media containing twice the desired final concentration of the compound (5 doses spanning 4 logs) was prepared and 100 μl was added to each well containing 100 μl media plus cells to yield the desired final concentration. The plates were then incubated for an additional 48 hours.
(§6) The effect of the compound on cellular viability was determined with the Sulforhodamine B (SRB) assay, which measures total protein. Cells were fixed with cold TCA to a final concentration of 10% and incubated at 4° C. for 60 minutes. The supernatant was discarded and the plates were washed five times with water and air-dried. SRB solution at […] in 1% acetic acid was added to each well and the plates were incubated for 10 minutes at room temperature. The plates were washed five times with 1% acetic acid and air-dried. The bound stain was solubilized with 10 mM trizma base and the absorbance was read on a plate reader at […].

HCT-116 cells [2] = assay: Calcein AM viability assay, HCT-116; type: cell-based; details: Homo sapiens
Protocol: (§7) The potency of the subject kinase inhibitors, as measured by loss of cellular viability, was determined with the Calcein AM assay (Molecular Probes). Calcein AM is a substrate of intracellular esterases, which is cleaved only in viable cells to generate a fluorescent product that can be quantified with a fluorescent plate reader. The fluorescent signal is proportional to the number of viable cells, and thus loss of signal in response to the exposure of cells to the subject kinase inhibitors correlates with a loss of viability. This assay not only distinguishes cell cycle arrest, in which cells may still by viable, from loss of viability, and is thus well suited for the evaluation of the subject kinase inhibitors. A compound that is a potent cytotoxic agent may cause significant loss of cell viability in such an assay.
(§8) Cellular IC50's were determined in the human colorectal carcinoma cell line, HCT-116, and the normal human fibroblast, IMR90. Protein adjusted IC50's were also determined in HCT-116. Results of such viability assays are presented in Table 2 (HCT-116 (viability/protein adjusted) and IMR-90). IC50's (μM, non-protein adjusted) for the viability assay against HCT-116 cells are shown for further compounds of the invention in Table 4.
(§9) HCT-116 or IMR90 cells were recovered from sub-confluent plates by trypsinization and 1,000 or 4,000 cells, respectively, were plated in 24-well dishes and incubated overnight at 37° C., 5% CO2. HCT-116 cells were cultured in RPMI-1640, 10% FCS, and IMR90 cells were cultured in Minimum Essential Medium-alpha, 10% FCS. After overnight incubation to allow adherence, the media was aspirated from each well and replaced with media containing a test compound at a concentration from 0 to 250 nM, spanning a total of 7 doses. The plates were returned to the incubator and cultured for an additional 72 hours (3 days). […] After 72-hours incubation with the test compound, the cells were washed twice with 1×PBS, taking special care to remove all residual buffer.
(§10) A 5 μM Calcein AM solution was prepared by dissolving a 50 μg aliquot of Calcein (Molecular Probes catalog #C3100) in 50 μl DMSO. After the Calcein had completely dissolved (10 minutes at room temperature), it was diluted into 10 ml PBS. Calcein/PBS (0.5 ml) was added to each well. The plates were incubated for 75 minutes at 37° C. (protected from light) and the fluorescent signal was read on a fluorescent plate reader (excitation 485/20 and emission 530/25).

HCT-116 cells [3] = assay: Clonogenic survival assay with HCT-116 cells; type: cell-based; details: Homo sapiens
Protocol: This assay was used to determine the concentration of a compound that results in irreversible loss of viability after a specified period of exposure. Essentially, cells are exposed to compound for a period of […], and are then transferred to compound-free growth medium. After continued incubation in the compound-free medium for a number of days, the number of colonies recovered is counted as an estimate of the number of surviving cells.
Media (RPMI-1640, 10% FCS, pen/strep) was pre-warmed to 37° C. in a water bath. Cells were incubated and grown at 37° C., 5% CO2. Cells were recovered by trypsinization from sub-confluent plates and counted using a hemocytometer. 1×10^4 cells were plated in 25 mls of media in a 15 cm tissue culture dish. […] were set up for each test compound, and were incubated overnight at 37° C. The compound was diluted into media at 7 concentrations and the media on the cells was replaced with that containing the test compound. Two plates were set up for each concentration of the compound to be tested, as well as two control plates without compound. Plates were incubated as above for […], media was removed and replaced with fresh media, and the plates were incubated an additional 7 days and washed with PBS. Colonies were stained with crystal violet solution (0.4% crystal violet, 20% ethanol) for 5 minutes, washed twice with distilled water, and counted.

[4] = test system: normal human fibroblast, IMR90; assay: Calcein AM viability assay, IMR90; type: cell-based; details: IMR-90, Calcein AM, 72 h
Protocol: as §7, §8, §9, §10

[5] = test system: adriamycin resistant cell line (ADR-res); assay: NCI panel, adriamycin resistant cell line, SRB assay; type: cell-based; details: Homo sapiens, 48 h
Source text: as §4, §5, §6

1A9-PTX10 = assay: SRB cytotoxicity, tubulin mutated paclitaxel-resistant cells; type: cell-based, human; details: for IC50: Homo sapiens, 1A9/ptx-10, 72 h, SRB
Protocol: as §1
(§11) The tubulin mutated, paclitaxel-resistant human ovarian carcinoma cell line 1A9-PTX10 and its parental paclitaxel-sensitive cell line 1A9 were derived from the A2780 human ovarian carcinoma cell line (J Biol Chem (1997) 272, 17118-17124).

NCI-Adr resistant = assay: SRB cytotoxicity, P-glycoprotein expressing cells with and without verapamil; type: cell-based; details: for IC50: Homo sapiens, NCI/ADR-RES, 72 h, SRB
Protocol: as §1

1A9 = assay: SRB cytotoxicity, 1A9 parental cells; type: cell-based; details: Homo sapiens, 72 h
Protocol: as §1, §11

[6] = HCT-116, 72 h, Calcein AM, 72 h, read-out: HCT-116 IC50 Viability
[7] = HCT-116, plus 1 mg/ml alpha acidic glycoprotein and 45 mg/ml human serum albumin, read-out: HCT-116 IC50 Protein adjusted
[8] = 24 h exposure, read-out: HCT-116 IC50 Clonogenic 24 h
[9] = 48 h exposure, read-out: HCT-116 IC50 Clonogenic 48 h

SMILES	IC50 [1]	IC50 (HCT-116 cells [2]; [6])	IC50 (HCT-116 cells [2]; [7])	IC50 (HCT-116 cells [3]; [8])	IC50 (HCT-116 cells [3]; [9])	IC50 [4]	IC50 [5]	also measured
CC[C@@]1(O)C(=O)OCc2c1cc1n(c2=O)Cc2cc3ccccc3nc2-1 [Camptothecin, reference compound]								IC50 (CEM): 0.0035 µM; RR (relative resistance) CEM/C2 vs CEM (CEM/C2): 1378; IC50 (CEM/C2; Homo sapiens, CEM/C2, 72 h, SRB): 4.82 µM
N.N.[Cl][Pt][Cl] [Cisplatin, cis-diamminedichloroplatinum (II), reference compound]								IC50 (A129): 0.324 µM; RR (relative resistance) A129 cp80 vs A129 (A129 cp80): 51.6; IC50 (A129 cp80; 72 h, SRB): 16.7 µM
O=C(Nc1cccc2c1C(=O)c1c-2n[nH]c1-c1ccc(OCCN2CCCC2)cc1)NN1CCOCC1 [Compound I]	< 0.1 µM	< 0.1 µM	< 1 µM	< 0.1 µM	< 0.1 µM	< 0.1 µM	< 1 µM	
CN1CCN(NC(=O)Nc2cccc3c2C(=O)c2c-3n[nH]c2-c2ccc(OCCN3CCCC3)cc2)CC1 [F]	< 0.1 µM	< 0.1 µM	< 0.1 µM	< 1 µM		< 0.1 µM	< 1 µM	
CCCN(CCOc1ccc(-c2[nH]nc3c2C(=O)c2c(NC(=O)NN4CCOCC4)cccc2-3)cc1)CC1CC1 [G]	< 0.1 µM	< 0.1 µM	< 1 µM	< 0.1 µM	< 0.1 µM	< 0.1 µM	< 1 µM	
O=C(Nc1cccc2c1C(=O)c1c-2n[nH]c1-c1ccc(OCCN(CCO)CCO)cc1)NN1CCOCC1 [H]	< 0.1 µM	< 0.1 µM	< 1 µM	< 1 µM	< 0.1 µM	< 0.1 µM	> 10 µM	
CC(C)N1CCN(Cc2cc(-c3[nH]nc4c3C(=O)c3c(NC(=O)NN5CCOCC5)cccc3-4)ccc2O)CC1 [K]	< 0.1 µM	< 0.1 µM	< 1 µM	< 1 µM		> 0.1 µM	< 10 µM	
Cc1cc(OCCN2CCCC2)ccc1-c1[nH]nc2c1C(=O)c1c(NC(=O)NN3CCN(C)CC3)cccc1-2 [L]	> 10 µM	< 0.1 µM	< 1 µM		< 0.1 µM	> 0.1 µM	> 10 µM	
CC(=O)O[C@H]1C(=O)[C@@]2(C)[C@H]([C@H](OC(=O)c3ccccc3)[C@]3(O)C[C@H](OC(=O)[C@H](O)[C@@H](NC(=O)c4ccccc4)c4ccccc4)C(C)=C1C3(C)C)[C@]1(OC(C)=O)CO[C@@H]1C[C@@H]2O [Paclitaxel, reference compound]								IC50 (1A9-PTX10): 0.235 µM; RR (relative resistance) 1A9-PTX10 vs 1A9 (1A9-PTX10; ratio of mean IC50 resistant/sensitive): 59; IC50 (NCI-Adr resistant; verapamil 12.5 μg/ml): 0.039 µM; IC50 (NCI-Adr resistant; without verapamil): 3.96 µM; RR (relative resistance) NCI-Adr resistant −/+ verapamil (NCI-Adr resistant; ratio of mean IC50): 101.5; IC50 (1A9): 0.004 µM
CN1CCN(NC(=O)Nc2cccc3c2C(=O)c2c-3n[nH]c2-c2ccc(OCCN3CCOCC3)cc2)CC1 [Q]	< 0.1 µM	< 0.1 µM	< 1 µM	< 0.1 µM		< 0.1 µM	< 10 µM	IC50 (HCT-116 cells [3]; 72 h exposure, read-out: HCT-116 IC50 Clonogenic 72 h): < 0.1 µM
CC(=O)O[C@@]12CO[C@@H]1C[C@H](O)[C@@]1(C)C(=O)[C@H](O)C3=C(C)[C@@H](OC(=O)[C@H](O)[C@@H](NC(=O)OC(C)(C)C)c4ccccc4)C[C@@](O)([C@@H](OC(=O)c4ccccc4)[C@H]21)C3(C)C [Taxotere, N-debenzoyl-N-tert-butoxycarbonyl-10-deacetyl paclitaxel, reference compound]								IC50 (1A9-PTX10): 0.16 µM; IC50 (NCI-Adr resistant; verapamil 12.5 μg/ml): 0.0363 µM; IC50 (NCI-Adr resistant; without verapamil): 3.31 µM; IC50 (1A9): 0.00175 µM
